# Assay results as given in patent US6350758B1, “Tropane derivatives and method for their synthesis” (Georgetown University, priority 1996, dated 2002).
# Target: T1, dopamine transporter (Rattus norvegicus, UniProt P23977)
# T1 construct: Synaptosomes were prepared by homogenizing fresh tissue in 20 volumes of ice-cold 0.32 M sucrose; from tissue; host or cells: striatal (caudate nucleus) synaptosomes from fresh brain tissue
# Experiment: Test B: uptake of [3H]dopamine and [3H]serotonin into striatal synaptosomes
# Assay type: biochemical
# Details: dopamine vs serotonin transporter
# Experimental: Uptake of [^3H]dopamine and [^3H]serotonin was carried out using synaptosomes from the same brain regions as described above for binding assays. A Krebs phosphate buffer, pH 7.4, containing 1 μM pargyline, dextrose (1.9 mg/ml), and ascorbic acid (0.2 mg/ml) was used. Synaptosomes were prepared by homogenizing fresh tissue in 20 volumes of ice-cold 0.32 M sucrose using a glass-teflon homogenizer. Nuclei and large tissue fragments were removed by centrifugation at 800×g for 10 minutes. The supernatant was centrifuged at 20,000×g for 15 minutes to collect synaptosomes in a pellet. The pellet was resuspended in 0.32 M sucrose at a concentration of 15, 100 or 10 mg/ml original wet weight, and diluted 10 fold in the assay tubes. The final assay volume was 1.0 ml and the duration of incubation at 30° C. was 3 minutes so that uptake was inear with time in contrast to binding assays where binding had reached equilibrium.
# Ki values were determined using serial dilutions of the analogues. A thirty minute preincubation of the analogues with the tissue was utilized before uptake was initiated by adding tritiated substrate. The preincubation was utilized to allow analogue and transporters to reach an equilibrium so that kinetic effects were not a significant factor. Ki values were determined using standard techniques.
# T1 sequence (P23977 whole entry): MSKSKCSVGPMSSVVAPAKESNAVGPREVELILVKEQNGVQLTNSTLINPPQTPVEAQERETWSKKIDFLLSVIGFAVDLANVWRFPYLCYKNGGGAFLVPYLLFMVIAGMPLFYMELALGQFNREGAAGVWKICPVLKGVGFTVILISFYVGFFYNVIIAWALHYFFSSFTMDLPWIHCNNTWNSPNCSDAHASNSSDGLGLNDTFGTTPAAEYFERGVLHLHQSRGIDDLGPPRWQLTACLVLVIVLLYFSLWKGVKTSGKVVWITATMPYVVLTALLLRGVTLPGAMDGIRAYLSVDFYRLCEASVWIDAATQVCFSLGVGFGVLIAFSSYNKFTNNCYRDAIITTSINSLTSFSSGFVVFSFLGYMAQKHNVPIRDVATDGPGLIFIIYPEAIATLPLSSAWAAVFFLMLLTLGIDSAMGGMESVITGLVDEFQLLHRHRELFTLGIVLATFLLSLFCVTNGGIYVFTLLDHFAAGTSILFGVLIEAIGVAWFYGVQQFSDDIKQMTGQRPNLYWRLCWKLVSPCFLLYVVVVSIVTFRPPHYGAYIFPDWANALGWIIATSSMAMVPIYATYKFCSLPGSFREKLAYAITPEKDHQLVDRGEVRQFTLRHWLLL
row,SMILES,selectivity for the dopamine transporter relative to the serotonin transporter
1,"Cc1ccc([C@@H]2C[C@@H]3CC[C@H]([C@H]2c2ccccc2)N3C)cc1 [compound 37, (1R, 5S)-2β-Phenyl-3α-(p-tolyl)tropane]",highly selective
2,"CN1[C@H]2CC[C@@H]1[C@@H](c1ccccc1)[C@H](c1ccccc1)C2 [compound 49, (1R,5S)-2β-Phenyl-3α-phenyltropane]",highly selective
